By IC50 is commonly meant the concentration that inhibits the measured activity by half.

Series [1] concerns the target T1, ERG (Homo sapiens, UniProt P11308).
T1 construct: expressed in transfected cells; host or cells: PNT1B-ERG (immortalized prostatic epithelial PNT1B cells stably overexpressing ERG)
T1 sequence (P11308 1-479): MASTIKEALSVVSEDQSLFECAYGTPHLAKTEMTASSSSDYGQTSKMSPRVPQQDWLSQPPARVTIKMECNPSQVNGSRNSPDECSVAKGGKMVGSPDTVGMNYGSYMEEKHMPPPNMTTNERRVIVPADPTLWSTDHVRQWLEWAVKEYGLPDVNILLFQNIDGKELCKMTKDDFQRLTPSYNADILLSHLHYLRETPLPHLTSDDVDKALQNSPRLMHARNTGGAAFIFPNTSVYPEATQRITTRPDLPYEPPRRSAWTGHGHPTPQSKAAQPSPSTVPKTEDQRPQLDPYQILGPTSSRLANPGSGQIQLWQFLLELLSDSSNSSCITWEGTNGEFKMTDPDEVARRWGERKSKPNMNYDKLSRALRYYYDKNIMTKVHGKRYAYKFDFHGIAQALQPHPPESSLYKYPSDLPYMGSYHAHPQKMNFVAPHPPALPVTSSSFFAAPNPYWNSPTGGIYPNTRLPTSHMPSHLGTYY
The series is described as follows: Dual reporter luciferase assay (pETS-luc) in PNT1B-ERG cells. In kind it is cell-based. Conditions: 0.1-100 μM, 48 h treatment. As for the experimental part: (§1) All of the compounds selected from the virtual screening were tested in a luciferase-based ERG-responsive reporter assay, using two ERG-overexpressing cell lines, VCaP and PNT1B-ERG, previously developed in house. […] Data were normalized first to Renilla luciferase and then to the DMSO-media control on each plate, unless otherwise stated. Initial hit compounds were identified as those with an average normalized luciferase reading (firefly luciferase/Renilla luciferase readings) that is 60% or less of the average normalized luciferase reading of the DMSO-media control (i.e. 40% or more reduction of luciferase activity) at 10 μM. Representative example of raw Renilla luciferase readings presented in Supplementary Figure 9B. The luciferase assays were repeated for each lead compound under multiple concentrations (0.1 to 100 μM) to establish a dose-dependent response and an IC50 value. AR reporter assay was performed as previously described.

Series [2] deals with T2, ERG (Homo sapiens, UniProt P11308).
T2 construct: VCaP (endogenous overexpression); endogenous in cells; host or cells: VCaP (whole cells for A2 and A17; nuclear extract for A16)
T2 sequence (P11308 33-479 limits assumed): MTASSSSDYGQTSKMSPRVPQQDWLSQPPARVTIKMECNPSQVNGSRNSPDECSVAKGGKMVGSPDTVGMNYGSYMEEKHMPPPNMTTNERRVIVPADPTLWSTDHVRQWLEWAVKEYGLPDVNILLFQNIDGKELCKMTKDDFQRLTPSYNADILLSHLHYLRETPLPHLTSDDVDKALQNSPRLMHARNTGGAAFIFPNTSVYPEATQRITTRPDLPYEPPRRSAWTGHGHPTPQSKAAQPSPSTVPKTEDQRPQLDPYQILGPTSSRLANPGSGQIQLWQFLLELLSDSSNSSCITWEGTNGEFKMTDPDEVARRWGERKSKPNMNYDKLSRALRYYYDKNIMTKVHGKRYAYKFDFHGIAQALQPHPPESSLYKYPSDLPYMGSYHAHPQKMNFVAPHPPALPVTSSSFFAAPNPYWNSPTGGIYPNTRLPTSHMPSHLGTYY
The series is described as follows: Dual reporter luciferase assay (pETS-luc) in VCaP cells. In kind it is cell-based. Conditions: 0.1-100 μM, 48 h treatment. As for the experimental part:
as §1

The next series deals with PNT1B-ERG or VCaP cells. The series is described as follows: Zebrafish yolk sac dissemination (xenograft metastasis) assay. The series is classed as in vivo. Conditions: 1 and 10 μM in water; 5 days; untreated 65 to 70%. As for the experimental part:
Research was carried in accordance with protocols compliant to the Canadian Council on Animal Care and with the approval of the Animal Care Committee at the University of British Columbia. The wildtype zebrafish strain was maintained in aquaria according to standard protocols. Embryos were generated by natural pair-wise matings and raised at 28.5°C on a 14 h light/10 h dark cycle in a 100 mm^2 petri dish containing aquarium water. Phenylthiourea (0.2 mM PTU, Sigma) was added to the embryos at 10 h post-fertilization (hpf) to prevent pigment formation. Yolk sac dissemination assay. PCa cell lines were fluorescently labelled the day before microinjection with 1.5 μM of CellTracker CM-Dil dye (Life Technologies) as per manufacturer's instructions. Wild-type embryos were dechorionated at 2 dpf. Following anaesthetization with tricane, approximately 50–70 cancer cells were microinjected into the yolk sac. Embryos were then transferred to 100 mm^2 plates that contained aquaria water with added PTU and VPC-18005, YK-4-279 or DMSO control. Embryos were visually assessed for presence of xenograph. […] Embryos were kept at 35°C for the duration of the experiment. Approximately, 50 fish were injected per cell line and metastasis was determined on Day 4 and 5 by observation using the Zeiss Axio Observer microscope (5X objective) controlled with Zen 2012 software. […]

For the molecule `CC(C)c1ccc(C=N/N=C2\NC(=O)[C@@H](CC(=O)O)S2)cc1` (stereo in doubt) [VPC-18005, 2-((Z)-2-(((Z)-4-isopropylbenzylidene)hydrazono)-4-oxothiazolidin-5-yl)acetic acid], the IC50 was determined as 3 µM on ERG [1] and 6 µM at ERG [2]. Besides, in the series with PNT1B-ERG or VCaP cells, the “Percentage of fish with PNT1B-ERG or VCaP dissemination” value was 20–30%.

As to `COc1ccc(C(=O)CC2(O)C(=O)Nc3c(Cl)ccc(Cl)c32)cc1` (stereo not drawn) [YK-4-279, reference compound], the half-inhibitory concentration (IC50) against ERG [1] was 5 µM; at ERG [2], 16 µM. Further, the “Percentage of fish with PNT1B-ERG or VCaP dissemination” value with PNT1B-ERG or VCaP cells is 40–60%.

The record behind these values is publication PMC5522078, “Discovery and characterization of small molecules targeting the DNA-binding ETS domain of ERG in prostate cancer” (Oncotarget, 2017).
